For four compounds, IC50 results are on record in patent publication US12643887B2, “Heterocyclic derivatives with cardiomyocyte proliferation activity for treatment of heart diseases” (Tongji University, priority 2019, dated 2026).

The target of the assay is T1, human CK2a2 (CSNK2a2) (Homo sapiens, UniProt P19784).
T1 construct: Recombinant human CK2a2 (CSNK2a2) (full length); GST (N); purchased SignalChem C71-10G; host or cells: Sf9 insect cells
The assay is described as follows: CK2a2 (CSNK2a2) enzyme assay (ADP-Glo). It counts as biochemical. The procedure:
8. CK2a2 (CSNK2a2) Enzyme Assay
The ability of compounds to inhibit human CK2a2 (CSNK2a2) kinase activities was determined using a commercially available ADP-Glo™ Kinase Assay kit (Promega, Cat #V9102) according to the manufacturer's protocol.
Recombinant human CK2a2 (CSNK2a2) (full length) (expressed in Sf9 insect cells with an N-terminal GST tag) was purchased from SignalChem (Cat #C71-10G). CK2 substrate (sequence: […]) was purchased from SignalChem (Cat #C08-58). This assay, run in a 384-well plate format, is a generic method for measuring kinase activities using an ADP-Glo Kinase Assay Kit. The basic assay procedure involves two steps: (1) Enzymatic step: inhibitors are incubated with the kinase and then ATP (included in the ADP-Glo Kinase Assay Kit) and the MBP protein are added to start the enzymatic reaction; (2) Detection step: after the kinase reaction, first ADP-Glo™ Reagent is added to terminate the kinase reaction and deplete the remaining ATP. Second, the Kinase Detection Reagent is added to simultaneously convert ADP to ATP and allow the newly synthesized ATP to be measured using a luciferase/luciferin reaction. The light generated is measured using a luminometer.
Briefly, CK2a2 (CSNK2a2) (7 nM) in the enzymatic buffer solutions (40 mM Tris, pH 7.5, 20 mM MgCl2, 0.1 mg/ml BSA, 50 μM DTT) were mixed with various concentrations of inhibitors (dissolved in 100% DMSO). These solutions were incubated for 30 minutes at 25° C., and subsequently a mixture of substrate peptide and ATP was added with the final peptide and ATP concentrations at 0.04 mg/ml and 15 μM, respectively. The final reaction mixture of enzyme-substrate-ATP-compound was incubated for 90 minutes at 25° C.
Afterwards ADP-Glo™ Reagent was added and the mixture was incubated at 25° C. for 60 minutes. Then Kinase Detection Reagent was added, and the final mixture was incubated at 25° C. for 60 minutes. The luminescence signal of the final solution was measured on an Envision instrument (PerkinElmer). The percent (%) inhibition at each concentration of a compound is calculated relative to the luminescence signal in the Max and Min control wells contained within each assay plate. […] The concentrations and percent inhibition values for a test compound are plotted and the concentration of the compound required to achieve 50% inhibition (IC50) is determined with a four-parameter logistic dose response equation.
Background: ADP-Glo turns the ADP formed in a reaction into a luminescent signal.

Where [1] appears, read: ADP-Glo, ATP 15 μM, read-out: CK2 alpha 2 IC50.

Like-named read-outs stand apart in the source and are kept apart here.

The IC50 is the point on the concentration scale where inhibition reaches its midpoint.

T1 sequence (P19784 whole entry): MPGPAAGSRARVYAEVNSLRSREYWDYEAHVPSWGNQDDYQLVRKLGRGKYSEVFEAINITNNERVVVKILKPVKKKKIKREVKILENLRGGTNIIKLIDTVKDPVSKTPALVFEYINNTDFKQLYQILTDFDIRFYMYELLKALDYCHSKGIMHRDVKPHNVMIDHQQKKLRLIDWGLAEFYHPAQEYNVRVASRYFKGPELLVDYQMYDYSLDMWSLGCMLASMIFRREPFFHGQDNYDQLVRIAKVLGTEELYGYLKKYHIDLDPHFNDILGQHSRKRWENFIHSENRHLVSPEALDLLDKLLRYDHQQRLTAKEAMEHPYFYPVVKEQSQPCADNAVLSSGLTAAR

For the compound `Cc1nc2ccc(NC3=N/C(=C\c4ccc5ncsc5c4)C(=O)N3)cc2s1` [Example 90, (Z)-5-(benzo[d]thiazol-6-ylmethylene)-2-((2-methylbenzo[d]thiazol-6-yl)amino)-3,5-dihydro-4H-imidazol-4-one], the half-maximal inhibitory concentration (IC50) under setting [1] was below 100 nM.

For the compound `CC(=O)N(C1=N/C(=C\c2ccc3c(c2)OCO3)C(=O)N1)c1ccccc1` [Example 5, (Z)—N-(4-(benzo[d][1,3]dioxol-5-ylmethylene)-5-oxo-4,5-dihydro-1H-imidazol-2-yl)-N-phenylacetamide], the IC50 is below 100 nM.

`CCN(C1=N/C(=C\c2ccc3c(c2)OCO3)C(=O)N1)c1ccccc1` [Example 4, (Z)-5-(benzo[d][1,3]dioxol-5-ylmethylene)-2-(ethyl(phenyl)amino)-3,5-dihydro-4H-imidazol-4-one]: the concentration for half-maximal inhibition (IC50) under setting [1] fell in the range of 100 to 1000 nM.

As for `Nc1ccc(NC2=N/C(=C\c3ccc4ncsc4c3)C(=O)N2)cc1` [Example 98, (Z)-2-((4-aminophenyl)amino)-5-(benzo[d]thiazol-6-ylmethylene)-3,5-dihydro-4H-imidazol-4-one], the IC50 under setting [1] was below 100 nM.
